In the assay the target is γ-secretase (catalytic subunit presenilin 1, PS1) (Cricetulus griseus, UniProt G3HNF2). The experiment in a line: Aβ[…] secretion. In kind it is cell-based.

Structures are written as SMILES.

Take `CC(C)[C@H](O)C(=O)N[C@@H](C)C(=O)N[C@@H]1C(=O)N(C)CCc2ccccc21` [semagacestat]: the IC50 (usually the concentration at which inhibition is half-maximal) was determined as 46.7 nM.

Values taken from article PMC5652037 (EBioMedicine, 2017).
